pIC50: −log10 of the molar value. Where a name gives a salt, the structure may show the parent alone.
Target: T1, human FPTase (Homo sapiens, UniProt P49354+P49356)
T1 construct: made in house
Test: In vitro inhibition of human farnesyl-protein transferase
Format: biochemical
Conditions: [3H]-FPP, 100 nM Ras-CVIM, 30 min, read-out: IC50 against human FPTase

Structure (SMILES): CC(=O)N(CCNc1cccc(Cl)c1)Cc1cncn1Cc1ccc(C#N)cc1 [Example 1, N-[1-(4-cyanobenzyl)-5-imidazolylmethyl]-N-[2-((3-chlorophenyl)amino)ethyl]acetamide dihydrochloride]
- pIC50: > 5.00

Reference: patent publication US5981562A, “Inhibitors of farnesyl-protein transferase” (Merck & Co., Inc., priority 1997, dated 1999)
